From patent publication EP2742942A1, “Niacinamide for inducing generation of antimicrobial peptides” (Unilever N.V., priority 2012, dated 2014)

What was measured:
[1] = system: Psoriasin (S100A7); assay: Psoriasin ELISA of keratinocyte culture supernatant; format: cell-based, human; settings: detected by ELISA, keratinocytes
Experimental: (§1) Human primary keratinocytes prepared from neonatal foreskin were obtained from (Lonza India) and cultured in serum-free keratinocyte growth medium with defined growth supplements (Invitrogen). Keratinocytes were cultured in 12 and 24 well tissue culture plates (BD Falcon) and treated cells at a confluence of 60-70%. Keratinocytes stimulation was performed in KGM with growth supplement and all experiment was done between passages 3 to 5.
Primary keratinocytes were seeded in 12-well plates (BD falcon). At 60 to 70% confluency, cells were treated with different concentration of Niacinamide for 72h. After 72 hours of incubation cell culture supernatant was stored at -70°C until used for ELISA. All ELISA reagents and samples were brought to room temperature prior to the assay. Cell culture supernatant samples were centrifuged at 5000 rpm for 10 minutes before use. 100 ↘l of undiluted sample of cell culture supernatant was used for checking the psoriasin level by using ELISA kit from CircuLex. The clinical samples were diluted in to 1:25 in dilution buffer and used 100↘l from diluted samples for checking psoriasin level by ELISA. In case of LL-37, 100 ↘l of undiluted samples from in vitro as well as clinical samples were used for checking LL-37 level by ELISA (Hycult Biotech).

[2] = system: E. coli; assay: Human volunteer study with Vaseline healthy white cream, E. coli count on forearm; format: in vivo; settings: two times per day for 1 day, control 4.3
Experimental: An experiment using the following protocol was conducted: • 1. Volunteers were given Lux™ soap for use and asked not to use any other soap or moisturizers on their forearm for 7 days before the start of the study. • 2. Volunteer were be asked to apply Vaseline™ healthy white base cream and Vaseline™ healthy white formulated with Niacinamide (1%, 2% and 3%) at various spots on the forearm. • 3. Volunteers were asked to repeat […] for two times per day for 1 day, morning after bath and night just before sleep. The volunteers were asked not to wash the forearms after application of formulations at night. • 4. On day 2, the forearms were washed by the investigator with a non-antibacterial soap bar and asked the volunteers to wait for 6 hours under controlled conditions (24 ±2°C and 45%±5% RH) • 5. After 6 hours of waiting, ∼10^6 E. coli were applied on the forearm to each spot separately. The contact time of E. coli on skin was 15 minutes. • 6. After 15 minutes, the sample was extracted from the forearm using the cup-rod method. • 7. E. coli was counted using standard microbiological method.

[3] = system: E. coli 10536; assay: In vivo forearm study with lotion, residual E. coli by cup scrub method; settings: lotion with 3% niacinamide, forearm of human volunteers, twice a day
Experimental: To confirm the findings from the in vitro experiments, the effect of Niacinamide on healthy human volunteers was tested in vivo. The volunteers were asked to apply a lotion with and without niacinamide (3%) on their forearm twice a day. After 7 days of application, the spots were extracted in PBS and ELISA was performed for detection of Psoriasin and LL-37 AMPs.
Glycerol stock of E. coli (10536) was inoculated in 30 ml TSB medium and culture was incubated overnight at 37°C in shaker incubator. Overnight culture was sub cultured on TSA slants and incubated overnight at 37°C then the slants were stored at 4°C (once in 15 days, slants were prepared freshly).
E. coli culture from slant was sub cultured on TSA plate and incubated overnight at 37°C. Overnight grown plate culture of E. coli was suspended in 6 to 7 ml of Sodium phosphate buffer (10mM). Density of culture was adjusted to 1 OD620 using spectrophotometer and used for clinical studies.
This technique is included in the ASTM method, E2752 - 10 (Standard guide for evaluation of residual effectiveness of antibacterial). The cup and rod were made up of Teflon and the area of the cup is 2.84 cm^2. The cup was used to hold the buffer on skin and rod was used for scrubbing, for better recovery of skin AMP and/or residual bacteria from skin. The duration of scrubbing was 1 min. […]

[4] = system: S100-A9; assay: AMP secretion by primary keratinocytes, mass spectrometry of secretome (PSM); format: cell-based; settings: Niacinamide 1mg/ml, 72 hours; control sample 2
Experimental: (§2) The following procedure was used to determine the AMPs induced as a consequence of niacinamide on keratinocte cells. • 1. Primary keratinocytes were seeded in 12 well plates with 1 ml of KGM complete media. (Seeded 60,000 cells/well at Passage-4). • 2. Plates were incubated in the CO2 incubator for 48 hours. • 3. After 48 hours of incubation, cells were treated with and without Niacinamide 1mg/ml concentration in duplicate wells (fresh media was used for treatment). • 4. After 72 hours of incubation, cell culture supernatant was transferred in to 1.5 ml eppendorf tubes respectively. • 5. Samples were then passed through 20 kDa cutoff filters to remove high molecular weight proteins. • 6. Eluted samples, containing <20kDa proteins were transferred to 15ml sterile centrifuge tubes. • 7. Then, chilled acetone (HPLC grade) was added to the eluted samples (1 ml of sample:4ml of acetone) • 8. Tubes were transferred to -20°C for 24 hours to precipitate the proteins. • 9. After 24 hours, tubes were centrifuged at 14000g for 40 minutes at 4°C. • 10. The supernatant was discarded and the protein pellet was analysed using mass spectrometry for proteins.
(§3) The increased level of secretion of AMPs is measured by a PSM value (a peptide spectrum match scoring function) which is a relative measure of abundance of the peptide in the secretome. Table - 5

[5] = system: Lactoferrin; assay: as above; format: cell-based; settings: Niacinamide 1mg/ml, 72 hours; control sample 1
Experimental: as §2, §3

[6] = system: Lipocalin -2; assay: as above; format: cell-based; settings: Niacinamide 1mg/ml, 72 hours; control sample 1
Experimental: as §2, §3

[7] = system: S-100-A8; assay: as above; format: cell-based; settings: Niacinamide 1mg/ml, 72 hours; control sample 1
Experimental: as §2, §3

[8] = system: Lysozyme C; assay: as above; format: cell-based; settings: Niacinamide 1mg/ml, 72 hours; control sample 2
Experimental: as §2, §3

[9] = system: S-100-A11; assay: as above; format: cell-based; settings: Niacinamide 1mg/ml, 72 hours; control sample 2
Experimental: as §2, §3

[10] = system: Elafin; assay: as above; format: cell-based; settings: Niacinamide 1mg/ml, 72 hours; control sample 1
Experimental: as §2, §3

[11] = system: Lipocalin-1; assay: as above; format: cell-based; settings: Niacinamide 1mg/ml, 72 hours; control sample 0
Experimental: as §2, §3

[12] = system: psoriasin gene expression; assay: Psoriasin gene expression in primary keratinocytes, quantitative real-time PCR; format: cell-based, human
Experimental: as §1
(§4) NHEKs were cultured in 12-well plates (BD, Falcon) at 6 × 10^4 cells per well. After 24h of incubation, 50% media was replaced with fresh media. On day 3, cells were treated with different concentrations of Niacinamide with fresh media for 16-18 hours. Cells were harvested in RLT buffer (Qiagen) and samples were stored at -70°C till used for RNA isolation.
(§5) Total RNA was isolated using RNeasy Mini kit from Qiagen, according to the manufacturer's instructions. […]
(§6) Real time PCR was carried out using SYBR green method as per the manufacturer's (Bio-Rad, USA) instructions using thermal controlled Chromo4 machine (Bio-Rad, USA). 5µl of 1:10 diluted sample of cDNA and 1.5pmole of specific primers were used in each reaction by using a standardized PCR program (i.e. 94°C for 5 minutes followed by 50 cycles of "94°C for 15 seconds, 60°C for 30sec, 72°C for 30 seconds) and results were analysed by using 2^-ΔΔCT method. […]

[13] = system: LL-37 gene expression; assay: LL-37 gene expression in primary keratinocytes, quantitative real-time PCR; format: cell-based; settings: Homo sapiens, Keratinocyte, 18 hours, Niacinamide 1.22 mg/ml, control = 1.0, read-out: Fold change (LL-37 gene expression)
Experimental: as §1, §4, §5, §6

NC(=O)c1cccnc1 [Niacinamide]
secretion of psoriasin AMP (in words) [1]: able to induce the secretion of psoriasin AMP
Residual log of E. Coli ([2]; 1 % niacinamide in Vaseline healthy white cream): 3.5
Residual log of E. Coli ([2]; 2% niacinamide in Vaseline healthy white cream): 3.0
Residual log of E. Coli ([2]; 3% niacinamide in Vaseline healthy white cream): 2.7
Residual log of E.Coli measured after one day of applying a composition ([3]; n= 28, basal 4.21, lotion without niacinamide 3.44): 2.31
Residual log of E.Coli measured after 7 days of applying a composition ([3]; n= 34, basal 4.41, lotion without niacinamide 3.56): 2.39
PSM value with niacinamide treatment, S100-A9 [4]: 4
PSM value with niacinamide treatment, Lactoferrin [5]: 7
PSM value with niacinamide treatment, Lipocalin -2 [6]: 4
PSM value with niacinamide treatment, S-100-A8 [7]: 3
PSM value with niacinamide treatment, Lysozyme C [8]: 4
PSM value with niacinamide treatment, S-100-A11 [9]: 5
PSM value with niacinamide treatment, Elafin [10]: 3
PSM value with niacinamide treatment, Lipocalin-1 [11]: 2
induction of psoriasin gene expression (in words) ([12]; 1.22 mg/ml): unable to induce psoriasin gene expression
fold induction at 1220 µg/mL ([12]; Homo sapiens, Keratinocyte, primary keratinocytes, 18 hours, Niacinamide 1.22 mg/ml, control = 1.0, read-out: Fold change (psoriasin gene expression)): 1.1
fold induction at 1220 µg/mL [13]: 2.4
